Consider 2 compounds from patent US20240247301A1, “DIAGNOSTIC ASSAY FOR CLASSIC INBORN GALACTOSEMIA” (Ohio State Innovation Foundation, priority 2022, published 2024).

Experiment [1] addresses Salmonella typhimurium YidA, recombinant wild type, SEQ ID NO: 1 (Salmonella enterica, UniProt Q8ZKY8). Briefly: YidA phosphatase activity (malachite green), dephosphorylation of Glc-1-P. Type of experiment: biochemical. From the text: The sugar phosphate phosphatase produced from an engineered cell can be identical to a naturally occurring one, such as YidA or YihX, but placed within a cell in which it is not naturally produced. Examples of this approach are given throughout. The sequence for YidA from Salmonella typhimurium can be found, for example, in NC_492731.1. This sequence corresponds to SEQ ID NO: 1. The gene ID is 1255358. The sequence for YihX from Salmonella typhimurium can be found, for example, in NC_462906.1. This corresponds to SEQ ID NO: 2. The gene ID is 1255552. In one example, genes encoding these proteins can be placed within a cell in which it is not naturally occurring.
Nearly homogeneous recombinant Salmonella YidA by overexpressing it in E. coli SixPack cells were obtained (Lipinszki et al. 2018) (FIG. 3A). N-terminal fusions with a small ubiquitin-like modifier (SUMO) domain were engineered to enhance solubility (Marblestone et al. 2006) and a His6 tag to facilitate affinity purification (FIG. 3A). […] Since YidA is a Mg^2+-dependent phosphatase, its activity with Glc-1-P in the presence of 0-5 mM MgCl2 was first tested and determined that 3 mM MgCl2 was optimal (FIG. 5). […]

Experiment [2] deals with E. coli YidA. The note with it: Kuznetsova et al. 2006; cited from earlier work.
Experiment [3] deals with Salmonella typhimurium YihX, recombinant wild type, SEQ ID NO: 2 (Salmonella enterica, UniProt Q7CPC8). Briefly: Kinetic studies of YihX with Glc 1-P and Gal 1-P. Type of experiment: biochemical. The following applies: YihX refolded after denaturing purification.
Description: Salmonella YihX was purified after overexpression in E. coli BL21 (DE3) pLysS cells. His6-YihX was purified under denaturing conditions using immobilized metal-affinity chromatography. Following purification, YihX was refolded by stepdown dialysis to remove the denaturant.
Experiment [4] relates to wild-type GalT (galactose-1-phosphate uridylyltransferase). The following applies: cited from earlier work; for Km: read-out: Km (for Gal-1-P).
The target of experiment [5] is T1, Duarte GalT (galactose-1-phosphate uridylyltransferase, Duarte variant) (Homo sapiens, UniProt P07902, N314D).
T1 construct: coupled to YidA or PGM-G6PDH (helper enzymes)
Description: Duarte GalT-PGM-G6PDH coupled assay (traditional). Format: biochemical. On the procedure:
It was sought to compare the Duarte GalT activity determined using the YidA assay versus the existing method. To this end, measurements were conducted using the traditional PGM-G6PDH coupled assay (McCorvie et al. 2013). By titrating the coupled enzymes, the threshold that permits the most sensitive detection was first determined.
(§1) Transformation and overexpression of GalT were performed as described elsewhere (Lai et al. 2021). For purification, a single bacterial colony expressing GalT was used to inoculate 2.5 mL of Dynamite growth medium (Taylor et al. 2017) supplemented with […] kanamycin and grown overnight at 37° ° C. with shaking. This saturated overnight culture was used to seed 250 mL of fresh dynamite medium containing the antibiotic. […]
(§2) Recombinant GalT was purified using the same protocol as that described above for YidA. The concentration of the His6-tagged GalT was determined using a molar extinction coefficient (85,620 M^−1 cm^−1) at 280 nm, and the final preparation was stored at −80° C. in small aliquots, which were subsequently thawed immediately before use in biochemical assays.
An NADH standard curve (data not shown) was generated using relative fluorescence units (RFUs) versus different concentrations of NADH and used as a reference for calculating the NADH produced from the Duarte GalT-PGM-G6PDH coupled assay. […]

Experiment [6] addresses T1, Duarte GalT (galactose-1-phosphate uridylyltransferase, Duarte variant). Briefly: Duarte GalT-YidA coupled assay (SUMO tag removed from YidA). Format: biochemical. On the procedure: Next, it was sought to obtain recombinant GalT for proof-of-concept assays. The ready availability of the Duarte GalT clone from Addgene (GALTA-c001) led to use of this enzyme in the current studies.
as §1, §2
These 2-μL aliquots were added to a 384-well plate which were pre-dispensed to test wells 18 μL of water and 5 μL of malachite green reagent. […] To determine the Km and kcat values, the initial velocity calculated at each substrate concentration was subject to the Michaelis-Menten curve-fitting option in Kaleidagraph (Synergy Software).

Where [7] appears, read: McCorvie et al., 2013 (text: 2014).
Setting [8] is: mean ± SD of three independent trials.

Several values for one entry are separate records, joined by “and”; a condition that tells them apart may be missing. Equal values may be shown once. Read-outs that look alike come from different tables or passages of the source.

Sequence of Salmonella typhimurium YidA, recombinant wild type, SEQ ID NO: 1 (Q8ZKY8 entry or part of it): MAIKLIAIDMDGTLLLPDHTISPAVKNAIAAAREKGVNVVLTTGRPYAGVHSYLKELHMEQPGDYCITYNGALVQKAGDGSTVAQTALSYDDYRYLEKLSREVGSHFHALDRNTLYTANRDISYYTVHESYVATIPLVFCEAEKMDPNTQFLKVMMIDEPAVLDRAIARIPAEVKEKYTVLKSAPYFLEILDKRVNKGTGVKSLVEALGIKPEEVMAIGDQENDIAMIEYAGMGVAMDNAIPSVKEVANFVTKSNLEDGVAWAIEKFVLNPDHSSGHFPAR
T1 sequence (P07902 whole entry N314D): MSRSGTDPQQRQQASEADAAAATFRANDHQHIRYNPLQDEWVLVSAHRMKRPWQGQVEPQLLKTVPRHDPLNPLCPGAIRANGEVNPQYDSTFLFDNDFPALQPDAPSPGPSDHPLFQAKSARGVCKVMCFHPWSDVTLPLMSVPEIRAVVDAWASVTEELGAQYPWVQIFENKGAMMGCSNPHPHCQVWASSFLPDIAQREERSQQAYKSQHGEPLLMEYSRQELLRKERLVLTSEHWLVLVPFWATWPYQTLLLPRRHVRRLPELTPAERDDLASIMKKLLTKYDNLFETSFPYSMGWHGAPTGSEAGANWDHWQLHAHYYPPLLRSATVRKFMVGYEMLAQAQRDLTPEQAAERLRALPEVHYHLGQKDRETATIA
Sequence of Salmonella typhimurium YihX, recombinant wild type, SEQ ID NO: 2 (Q7CPC8 entry or part of it): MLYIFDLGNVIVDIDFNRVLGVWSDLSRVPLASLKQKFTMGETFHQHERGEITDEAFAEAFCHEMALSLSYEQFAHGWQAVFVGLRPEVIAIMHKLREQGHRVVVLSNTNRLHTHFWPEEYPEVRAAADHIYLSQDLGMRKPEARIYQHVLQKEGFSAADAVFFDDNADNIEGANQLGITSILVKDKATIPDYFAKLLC

For orientation: kcat means the number of substrate molecules converted per active site and unit of time at saturation. For orientation: Km means the concentration of substrate that gives half-maximal velocity. As for `O=P(O)(O)O[C@H]1O[C@H](CO)[C@@H](O)[C@H](O)[C@H]1O` [Glc-1-P, α-D-glucose-1-phosphate], the kcat was 14.2 ± 0.35 s⁻¹ in experiment [1] (mean ± SE of two independent trials); 13.9 ± 1.07 s⁻¹ and 14.6 ± 1.05 s⁻¹ in experiment [1] (single trials, ± curve-fit error, pH 8, 37° C., 3 mM MgCl2); 20 s⁻¹ in experiment [2]. Further, the Km in experiment [2] was 210 µM. In addition, in experiment [3], the “specificity for Glc 1-P over Gal 1-P” value was 36 fold.
Consider `O=P(O)(O)O[C@H]1O[C@H](CO)[C@H](O)[C@H](O)[C@H]1O` [Gal-1-P, galactose-1-phosphate], for which the kcat in experiment [4] (Crews et al., 2000) was 5,880 min^−1; in experiment [4] (setting [7]), 816 min⁻¹; in experiment [4] (Tang et al., 2012, table value calculated from reported Vmax with 44 kDa), 2,400 min^−1 and 2,122* min^−1; in experiment [5] (setting [8]), 4.32 ± 0.12 s⁻¹; in experiment [5] (single trials, ± curve-fit error, pH 8, 37° C., 0.8 mM UDP-glucose), 4.45 ± 0.2 s⁻¹ and 4.3 ± 0.067 s⁻¹ and 4.22 ± 0.2 s⁻¹; in experiment [6] (setting [8]), 14.2 ± 1.33 s⁻¹ and 14.1 ± 0.75 s⁻¹. Besides, the catalytic constant (kcat) in experiment [6] (single trials, ± curve-fit error, pH 8.0, 37° C., 1 mM UDP-glucose) was 14.2 ± 1.33 s⁻¹ and 13.3 ± 1.05 s⁻¹ and 14.7 ± 1.17 s⁻¹. Also, the Km in experiment [4] (Crews et al., 2000) is 400 µM; in experiment [4] (setting [7]) it was 290 µM; in experiment [4] (Tang et al., 2012), 1250 µM.
